Reference: US12304890B2, “R-type pyridyloxycarboxylic acid, salt and ester derivative thereof, and preparation method therefor, and herbicidal composition and application thereof” (Qingdao Kingagroot Chemical Compound Co., Ltd., priority 2018, dated 2025)

Test system: Monocotyledonous and dicotyledonous weed seeds and main crop seeds
Experiment: Post-emergence test experiment, other weeds and crops (Table 4, 1000 g a.i./ha)
Assay type: in vivo
Conditions: 3 weeks in greenhouse, fresh weight inhibition
Procedure: The above described growth inhibition rate is fresh weight inhibition rate.
Post-emergence test experiment: Monocotyledonous and dicotyledonous weed seeds and main crop seeds (i. e. wheat, corn, rice, soybean, cotton, oilseed, millet and sorghum.) were put into a plastic pot loaded with soil. Then covered with 0.5-2 cm soil, the seeds were allowed to grow in good greenhouse environment. The test plants were treated at 2-3 leaf stage 2 weeks after sowing. The test compounds of the invention were dissolved with acetone respectively, then added with tween-80, and using 1.5 liters per hectare of an emulsible concentrate of methyl oleate as a synergist, and diluted by certain amount of water to certain concentration. The solution was sprayed to the plants with a sprayer.

| SMILES | Activity level (growth inhibition rate), Abutilon theophrasti Medic. | Activity level (growth inhibition rate), Galium aparine | Activity level (growth inhibition rate), Monochoria Vaginalis |
| --- | --- | --- | --- |
| Nc1c(Cl)c(F)nc(O[C@@H](C(=O)[O-])c2ccccc2)c1Cl.[Na+] [Compound 2-1] | 5 (Level 5: the growth inhibition rate is greater than 85%) | 5 (Level 5: the growth inhibition rate is greater than 85%) | 5 (Level 5: the growth inhibition rate is greater than 85%) |
| CCC(Oc1nc(F)c(Cl)c(N)c1Cl)C(=O)[O-].C[N+](C)(C)Cc1ccccc1 (stereo not drawn) [Compound 2-5] | 5 (Level 5: the growth inhibition rate is greater than 85%) | 5 (Level 5: the growth inhibition rate is greater than 85%) | 5 (Level 5: the growth inhibition rate is greater than 85%) |
| C[N+](C)(C)CCO.Nc1c(Cl)c(F)nc(O[C@@H](C(=O)[O-])c2ccccc2)c1Cl [Compound 2-6] | 5 (Level 5: the growth inhibition rate is greater than 85%) | 5 (Level 5: the growth inhibition rate is greater than 85%) | 5 (Level 5: the growth inhibition rate is greater than 85%) |
| CC(C)N.Nc1c(Cl)c(F)nc(O[C@@H](C(=O)O)c2ccccc2)c1Cl [Compound 2-8] | 5 (Level 5: the growth inhibition rate is greater than 85%) | 5 (Level 5: the growth inhibition rate is greater than 85%) | 5 (Level 5: the growth inhibition rate is greater than 85%) |
| NCc1ccccc1 [Compound 2-9, benzylamine] | 5 (Level 5: the growth inhibition rate is greater than 85%) | 5 (Level 5: the growth inhibition rate is greater than 85%) | 5 (Level 5: the growth inhibition rate is greater than 85%) |
| CCC(Oc1nc(F)c(Cl)c(N)c1Cl)C(=O)O.NCCO (stereo not drawn) [Compound 2-10] | 5 (Level 5: the growth inhibition rate is greater than 85%) | 5 (Level 5: the growth inhibition rate is greater than 85%) | 5 (Level 5: the growth inhibition rate is greater than 85%) |
| NCCOCCO.Nc1c(Cl)c(F)nc(O[C@@H](C(=O)O)c2ccccc2)c1Cl [Compound 2-11] | 5 (Level 5: the growth inhibition rate is greater than 85%) | 5 (Level 5: the growth inhibition rate is greater than 85%) | 5 (Level 5: the growth inhibition rate is greater than 85%) |
| C=CCNCC=C.CCC(Oc1nc(F)c(Cl)c(N)c1Cl)C(=O)S (stereo not drawn) [Compound 2-12] | 5 (Level 5: the growth inhibition rate is greater than 85%) | 5 (Level 5: the growth inhibition rate is greater than 85%) | 5 (Level 5: the growth inhibition rate is greater than 85%) |
| NC1CCCCCCCCCCC1 [Compound 2-13, cyclododecylamine] | 5 (Level 5: the growth inhibition rate is greater than 85%) | 5 (Level 5: the growth inhibition rate is greater than 85%) | 5 (Level 5: the growth inhibition rate is greater than 85%) |
| NCCNCCN.Nc1c(Cl)c(F)nc(OC(C(=O)O)c2ccccc2)c1Cl (stereo not drawn) [Compound 2-15] | 5 (Level 5: the growth inhibition rate is greater than 85%) | 5 (Level 5: the growth inhibition rate is greater than 85%) | 5 (Level 5: the growth inhibition rate is greater than 85%) |
| CN(C)CCCN.Nc1c(Cl)c(F)nc(OC(C(=O)O)c2ccccc2)c1Cl (stereo not drawn) [Compound 2-16] | 5 (Level 5: the growth inhibition rate is greater than 85%) | 5 (Level 5: the growth inhibition rate is greater than 85%) | 5 (Level 5: the growth inhibition rate is greater than 85%) |
| NCCNCCNCCN [Compound 2-18, triethylenetetramine] | 5 (Level 5: the growth inhibition rate is greater than 85%) | 5 (Level 5: the growth inhibition rate is greater than 85%) | 5 (Level 5: the growth inhibition rate is greater than 85%) |
| CN(CCCN)CCCN [Compound 2-19, N,N-bis[aminopropyl]methylamine] | 5 (Level 5: the growth inhibition rate is greater than 85%) | 5 (Level 5: the growth inhibition rate is greater than 85%) | 5 (Level 5: the growth inhibition rate is greater than 85%) |
| CCCCOCCN [Compound 2-21, 2-butoxyethylamine] | 5 (Level 5: the growth inhibition rate is greater than 85%) | 5 (Level 5: the growth inhibition rate is greater than 85%) | 5 (Level 5: the growth inhibition rate is greater than 85%) |
| NC(CO)(CO)CO [Compound 2-23, tri(methylol) aminomethane] | 5 (Level 5: the growth inhibition rate is greater than 85%) | 5 (Level 5: the growth inhibition rate is greater than 85%) | 5 (Level 5: the growth inhibition rate is greater than 85%) |
| CCC(Oc1nc(F)c(Cl)c(N)c1Cl)C(=O)S.NCCCN1CCOCC1 (stereo not drawn) [Compound 2-25] | 5 (Level 5: the growth inhibition rate is greater than 85%) | 5 (Level 5: the growth inhibition rate is greater than 85%) | 5 (Level 5: the growth inhibition rate is greater than 85%) |
| CC[C@@H](Oc1nc(F)c(Cl)c(N)c1Cl)C(=O)SC [Compound 2-33] | 5 (Level 5: the growth inhibition rate is greater than 85%) | 5 (Level 5: the growth inhibition rate is greater than 85%) | 5 (Level 5: the growth inhibition rate is greater than 85%) |
| CCC(Oc1nc(F)c(Cl)c(N)c1Cl)C(=O)OC (stereo not drawn) [Compound 2-34] | 5 (Level 5: the growth inhibition rate is greater than 85%) | 5 (Level 5: the growth inhibition rate is greater than 85%) | 5 (Level 5: the growth inhibition rate is greater than 85%) |
| COC(=O)C(Oc1nc(F)c(Cl)c(N)c1Cl)C(C)C (stereo not drawn) [Compound 2-35] | 5 (Level 5: the growth inhibition rate is greater than 85%) | 5 (Level 5: the growth inhibition rate is greater than 85%) | 5 (Level 5: the growth inhibition rate is greater than 85%) |
| CSC(=O)C(Oc1nc(F)c(Cl)c(N)c1Cl)C(C)C (stereo not drawn) [Compound 2-36] | 5 (Level 5: the growth inhibition rate is greater than 85%) | 5 (Level 5: the growth inhibition rate is greater than 85%) | 5 (Level 5: the growth inhibition rate is greater than 85%) |
| CCCC(Oc1nc(F)c(Cl)c(N)c1Cl)C(=O)OC (stereo not drawn) [Compound 2-37] | 5 (Level 5: the growth inhibition rate is greater than 85%) | 5 (Level 5: the growth inhibition rate is greater than 85%) | 5 (Level 5: the growth inhibition rate is greater than 85%) |
| COC(=O)C(Oc1nc(F)c(Cl)c(N)c1Cl)C1CC1 (stereo not drawn) [Compound 2-38] | 5 (Level 5: the growth inhibition rate is greater than 85%) | 5 (Level 5: the growth inhibition rate is greater than 85%) | 5 (Level 5: the growth inhibition rate is greater than 85%) |
| COC(=O)C(Oc1nc(F)c(Cl)c(N)c1Cl)C(F)(F)F (stereo not drawn) [Compound 2-39] | 5 (Level 5: the growth inhibition rate is greater than 85%) | 5 (Level 5: the growth inhibition rate is greater than 85%) | 5 (Level 5: the growth inhibition rate is greater than 85%) |
